Test results as given in patent EP1891948A1, “Treatment of neurological and neuropsychological disorders” (Probiodrug AG, priority 2000, dated 2002).

Assays:
[1] = cited from earlier work; for anxiety in the elevated plus-maze and social interaction tests: blockade of amygdala NPY Y1R, low stress conditions, Kask et al., 1998b, Sajdyk, 1999
[2] = test system: WistarF/Han (WF) rats; test: Social interaction (SI) test with Y1R antagonist pre-treatment (Example 4); assay type: in vivo; details: Fig. 10
Description: (§1) Animals. Male WistarF/Han (WF) rats (Central Animal Laboratory, Hannover Medical School, Hannover, Germany, see http://www.mh-hannover.de/institut/tierlabor/wf.htm for details), weighing 330±31 g±SD, were housed in a sound-proof, temperature controlled (24.0±0.5°C) room under specific pathogen free conditions with a 12/12h dark/light cycle (lights on at 07.00 with illumination level of 80 Lux). Food (Altromin lab chow pellets) and tap water were available ad libitum. Under ketamine/xylasine (100/5 mg/kg, i.p.) anesthesia, the rats were fixed in a Kopf stereotaxic frame and implanted with cannulae (Plastic One, Inc., Roanoke, VA, USA) above the lateral ventricle. All research and animal care procedures were approved by the Lower Saxony district government (Hannover, Germany) and followed principles described in the European Community's Council Directive of 24 November 1986 (86/609/EEC).
Surgery and i.c.v. application. […]
Animals were randomly divided into eight experimental groups (n=6-8/group), which completed one SI test of anxiety: (1) aCSF+aCSF+aCSF; (2) BIBP+aCSF+aCSF; (3) aCSF+isoleucyl thiazolidine+aCSF; (4) BIBP+isoleucyl thiazolidine+aCSF; (5) aCSF+aCSF+NPY; (6) BIBP+aCSF+NPY; (7) aCSF+P32/89+NPY; (8) BIBP+isoleucyl thiazolidine+NPY. […] The time spent in active social interaction (SI-time), 1h, and 12h food-intake were measured. […]
Social interaction (SI) test. […] Behavior was monitored using a video camera placed above the field inside the testing/isolation box. The SI behavior of both rats was recorded on-line from a monitor placed outside on top of the box. The following parameters were scored by an observer (HPN) unaware of the substrain of rats: duration of time spent in sniffing, following, crawling under and over other rats, but not passive body contact (resting, sleeping). […]
(§2) Statistical analysis. Data obtained from the measures SI time and 1h food intake were analyzed by one-way (factor: "treatment") ANOVA. […]

[3] = test system: rats; details: administered into the dorsal periaqueductal gray matter; Kask et al., 1998d; cited from earlier work
[4] = test system: WistarF/Han (WF) rats; test: 1h food intake with Y1R antagonist pre-treatment (Example 4); assay type: in vivo; details: i.c.v., BIBP3226 100nmol pre-treatment; isoleucyl thiazolidine 50nmol; NPY 0.8nmol; Fig. 11
Description: as §1
(§3) Surgery and i.c.v. application. For surgery, rats were anesthetized and prepared with i.c.v. cannulae (coordinates: A:-0.7mm caudal, L:1.4mm lateral to bregma; and V3.2mm ventral to the skull surface; tooth bar +3.0 above ear bars) using standard stereotaxic procedures as described in detail elsewhere (von Hörsten et al., 1998a,b,c). After a 7-day recovery period, successful ventricle cannulation was confirmed by an angiotensin drinking response (von Hörsten et al., 1998a). Rats showing a positive drinking response (n=56) were then habituated to experimental handling by daily sham injections for seven days.
Animals were randomly divided into eight experimental groups (n=6-8/group), which completed one SI test of anxiety: (1) aCSF+aCSF+aCSF; (2) BIBP+aCSF+aCSF; (3) aCSF+isoleucyl thiazolidine+aCSF; (4) BIBP+isoleucyl thiazolidine+aCSF; (5) aCSF+aCSF+NPY; (6) BIBP+aCSF+NPY; (7) aCSF+P32/89+NPY; (8) BIBP+isoleucyl thiazolidine+NPY. Animals in each group were treated in an identical way in each phase, receiving i.c.v. injections -60mins and -55min before behavioral testing. Experiments spanned two nights with groups counterbalances on both dark cycles. The injection cannula was attached to a Hamilton microsyringe with approximately 30cm of polyethylene tubing and all compounds were infused in a total volume of 5.0µl at a rate of 5.0 µl/min using a TSE multichannel infusion pump (Bad Homburg, Germany). The time spent in active social interaction (SI-time), 1h, and 12h food-intake were measured.
Peptides and Antagonist. Rat neuropeptide Y1-36 was obtained from Polypeptide Laboratories (Wolfenbüttel, Germany). The NPY Y1 receptor antagonist BIBP3226 was purchased from American Peptide Company, Sunnyvale, CA, USA (Cat#:60-1-22B). […]
as §2

[5] = test system: WistarF/Han (WF) rats; test: 1h and 12h food intake after combined i.c.v. treatment (Example 3); assay type: in vivo; details: single agents or combination, isoleucyl thiazolidine 5pmol-500nmol, NPY 50pmol-1.6nmol, Fig. 8
Description: as §1, with “330-370g,” for “330±31 g±SD,”
as §3, with “(n=59)” for “(n=56)”
Animals were randomly divided into two sets of four experimental groups (n=5-6/group), which completed different consecutive SI test of anxiety. […] The time spent in active social interaction (SI-time), 1h and 12h food-intake were measured. […]
Statistical analysis. Data from repeated observations (food intake) were analyzed by two-way analyses of variance for repeated measures (ANOVA) (factors: "substrain" and "food intake" as repeated measure). Data obtained from simple measures such as DP IV activity or SI time were analyzed by one-way (factor: "substrain") ANOVA. […]

[6] = test system: olfactory bulbectomized rats; details: 7-day i.c.v. administration; Song et al., 1996; cited from earlier work
[7] = i.c.v. injection, Kask et al. (1996)

| Compound | anxiety in the elevated plus-maze and social interaction tests [1] | effect on isoleucyl thiazolidine-induced potentiation of the NPY mediated anxiolytic-like effect on SI behavior ([2]; i.c.v. pre-treatment, BIBP3226 100nmol) | time spent in active social interaction [3] | effect in the elevated plus-maze test [1, 7] | locomotor effect [1, 7] | 1h feeding under Y1R blockade [4] | anxiolytic-like effect in the SI test under Y1 receptor blockade ([2]; i.c.v., BIBP3226 100nmol pre-treatment, isoleucyl thiazolidine 50nmol, NPY 0.8nmol) | amount of food eaten within 1h [5] | behavioral and neurotransmitters deficits [6] |
| --- | --- | --- | --- | --- | --- | --- | --- | --- | --- |
| NC(=O)NCc1ccc(CNC(=O)[C@@H](CCCN=C(N)N)NC(=O)C(c2ccccc2)c2ccccc2)cc1 [BIB03304] | did not increase anxiety | – | – | – | – | – | – | – | – |
| NC(N)=NCCC[C@@H](NC(=O)C(c1ccccc1)c1ccccc1)C(=O)NCc1ccc(O)cc1 [BIBP3226] | did not increase anxiety | can block | decreased | anxiogenic-like effects | without any locomotor deficit | only partly affected | – | – | – |
| NPY: Rat neuropeptide Y1-36 obtained from Polypeptide Laboratories | – | – | – | – | – | only partly mediated by the Y1R | antagonized | "u-shaped" dose-dependent feeding effect | attenuated |
